US12630498B2 (Genzyme Corporation, priority 2019, dated 2026)

Tests used:
[1] = biological target: T1, CFTR-mediated transepithelial chloride transport in primary human bronchial epithelial cells from a ΔF508 homozygous CF donor (Homo sapiens, UniProt P13569, DEL508-508); assay: TECC24 recording of CFTR-mediated transepithelial chloride transport in CF-HBE cells (AUC fold over DMSO); assay type: cell-based; settings: test agent 10 μM, 48 hours incubation, AUC of forskolin-stimulated IEQ relative to DMSO
T1 construct: Primary human bronchial epithelial cells from a ΔF508 homozygous CF donor; host or cells: primary CF-HBE cells, ΔF508 homozygous donor
In short: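 Equivalent Cl⁻ current was derived from transepithelial voltage and resistance, and its AUC from forskolin (10 μM) to CFTRinh-172 (20 μM) was divided by the DMSO AUC. Benzamil 10 μM blocked ENaC. Cells were ΔF508-homozygous primary bronchial epithelia pretreated 48 h at 36.5 °C in IL-13 medium.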

[2] = biological target: T2, human Cystic Fibrosis Transmembrane Conductance Regulator (CFTR) harboring the ΔF508 mutation (Homo sapiens, UniProt P13569, DEL508-508); assay: H441 cell ΔF508-CFTR-HRP cell surface assay (Emax and EC50); assay type: cell-based; settings: for Emax: NCI-H441, NA = Not active
T2 construct: expressed in transfected cells; host or cells: H441 carcinoma line (G418-selected)
In short: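 H441 and 41o- bronchial epithelial cells expressing ΔF508-CFTR with an extracellular-loop-4 HRP tag were treated with a 15-point compound series (24.5–0.001 μM) for two nights, H441 at 27° C, 41o- at 37° C with 0.0005 mg/ml doxycycline. Surface HRP luminescence read; % of maximum VX809 signal and EC50 derived.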

T1 sequence (P13569 with tags, fused parts or gaps DEL508-508): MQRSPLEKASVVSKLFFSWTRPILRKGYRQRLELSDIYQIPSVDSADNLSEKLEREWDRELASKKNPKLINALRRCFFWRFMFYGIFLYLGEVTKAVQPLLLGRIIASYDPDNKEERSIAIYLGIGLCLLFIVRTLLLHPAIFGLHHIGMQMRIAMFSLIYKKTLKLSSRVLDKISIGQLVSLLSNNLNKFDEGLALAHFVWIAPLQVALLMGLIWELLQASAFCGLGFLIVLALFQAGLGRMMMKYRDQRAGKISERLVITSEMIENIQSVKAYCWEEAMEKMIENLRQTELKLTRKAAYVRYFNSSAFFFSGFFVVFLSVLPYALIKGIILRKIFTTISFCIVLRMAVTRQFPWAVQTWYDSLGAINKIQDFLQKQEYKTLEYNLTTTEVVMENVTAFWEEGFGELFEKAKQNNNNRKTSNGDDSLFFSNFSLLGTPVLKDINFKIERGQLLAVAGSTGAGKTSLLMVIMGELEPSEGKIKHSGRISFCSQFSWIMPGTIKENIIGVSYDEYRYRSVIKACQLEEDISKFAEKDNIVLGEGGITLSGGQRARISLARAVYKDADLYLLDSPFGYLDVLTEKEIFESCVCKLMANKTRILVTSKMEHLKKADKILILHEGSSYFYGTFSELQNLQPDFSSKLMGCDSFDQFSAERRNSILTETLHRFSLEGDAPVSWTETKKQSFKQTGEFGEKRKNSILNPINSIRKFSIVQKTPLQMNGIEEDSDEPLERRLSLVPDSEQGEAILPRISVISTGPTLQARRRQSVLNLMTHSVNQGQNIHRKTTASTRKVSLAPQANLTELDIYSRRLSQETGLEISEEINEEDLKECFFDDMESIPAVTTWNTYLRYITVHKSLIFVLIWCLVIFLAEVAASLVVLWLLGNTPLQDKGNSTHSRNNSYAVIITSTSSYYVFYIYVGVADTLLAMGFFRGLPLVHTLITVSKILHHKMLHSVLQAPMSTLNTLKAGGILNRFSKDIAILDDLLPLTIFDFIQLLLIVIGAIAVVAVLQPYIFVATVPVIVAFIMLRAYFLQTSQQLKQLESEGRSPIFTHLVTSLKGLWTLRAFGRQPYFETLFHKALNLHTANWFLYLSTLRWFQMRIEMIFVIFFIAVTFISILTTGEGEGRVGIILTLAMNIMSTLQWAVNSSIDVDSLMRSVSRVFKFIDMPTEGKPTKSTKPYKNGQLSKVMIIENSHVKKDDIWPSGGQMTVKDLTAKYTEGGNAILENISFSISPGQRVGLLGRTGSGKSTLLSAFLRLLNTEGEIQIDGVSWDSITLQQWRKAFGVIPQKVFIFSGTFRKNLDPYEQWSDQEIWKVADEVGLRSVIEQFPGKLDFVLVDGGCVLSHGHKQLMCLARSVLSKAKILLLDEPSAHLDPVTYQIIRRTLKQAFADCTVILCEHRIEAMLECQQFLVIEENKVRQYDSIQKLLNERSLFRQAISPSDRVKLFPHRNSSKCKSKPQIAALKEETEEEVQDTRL
T2 sequence (P13569 with tags, fused parts or gaps DEL508-508): as above

Structure (SMILES)	TECC24 AUC fold over DMSO @10 μM [1]	EC50 [2]	Emax [2]
CC(C)(C)[C@H](NC(=O)c1cc(F)c2ccccc2c1OCc1ccc(C(F)(F)F)cc1)C(=O)O [Example 64, (S)-2-(4-fluoro-1-((4-(trifluoromethyl)benzyl)oxy)-2-naphthamido)-3,3-dimethylbutanoic Acid]	C (“C” refers to AUC @10 uM <4)	0.6 µM	106%
O=C(N[C@@H](Cc1ccc2c(c1)OCO2)C(=O)O)c1ccc2ccccc2c1OCc1ccc(C(F)(F)F)cc1 [Example 106, (S)-3-(benzo[d][1,3]dioxol-5-yl)-2-(1-((4-(trifluoromethyl)benzyl)oxy)-2-naphthamido)propanoic Acid]	C (“C” refers to AUC @10 uM <4)	10.4 µM	82.1%
CC1(C(NC(=O)c2ccc3ccccc3c2OCc2ccc(C(F)(F)F)cc2)C(=O)O)CCCCC1 (centres unmarked) [Example 80, 2-(1-methylcyclohexyl)-2-(1-((4-(trifluoromethyl)benzyl)oxy)-2-naphthamido)acetic Acid]	C (“C” refers to AUC @10 uM <4)	0.4 µM	195%
C[C@@H](OC(C)(C)C)C(NC(=O)c1ccc2ccccc2c1OCc1ccc(C(F)(F)F)cc1)C(=O)O (stereo partly drawn) [Example 133, (3R)-3-(tert-butoxy)-2-(1-((4-(trifluoromethyl)benzyl)oxy)-2-naphthamido)butanoic Acid]	A (“A” refers to AUC @10 uM >6)	1.2 µM	151%
CC(C)(SC1CC2CCC1C2)[C@H](NC(=O)c1ccc2ccccc2c1OCC1CCCCC1)C(=O)O (some centres unmarked) [Example 175]	C (“C” refers to AUC @10 uM <4)	3 µM	152%
O=C(N[C@@H](CCc1ccccc1)C(=O)O)c1ccc2ccccc2c1OCc1ccc(C(F)(F)F)cc1 [Example 88, (S)-4-phenyl-2-(1-((4-(trifluoromethyl)benzyl)oxy)-2-naphthamido)butanoic Acid]	C (“C” refers to AUC @10 uM <4)	7.3 µM	64.4%
CC(C)(C)C[C@H](NC(=O)c1ccc2cc(F)ccc2c1OCc1ccc(C(F)(F)F)cc1)C(=O)O [Example 198, (S)-2-(6-fluoro-1-((4-(trifluoromethyl)benzyl)oxy)-2-naphthamido)-4,4-dimethylpentanoic Acid]	A (“A” refers to AUC @10 uM >6)	1.5 µM	94.4%
CC(C)(C)[C@H](NC(=O)c1ccc2ccccc2c1OCC1CC2CCC1C2)C(=O)O (stereo partly drawn) [Example 41, (2S)-2-(1-(bicyclo[2.2.1]heptan-2-ylmethoxy)-2-naphthamido)-3,3-dimethylbutanoic Acid]	C (“C” refers to AUC @10 uM <4)	3.7 µM	112%
CC(C)(C)[C@H](NC(=O)c1ccc2ccccc2c1OCc1ccc(C(F)(F)F)cc1)C(=O)O [Example 74]	A (“A” refers to AUC @10 uM >6)	0.8 µM	216%
O=C(N[C@H](C(=O)O)C12CCC(CC1)C2)c1ccc2ccccc2c1OCc1ccc(OC(F)(F)F)cc1 [Example 14, (S)-2-((1r,4S)-bicyclo[2.2.1]heptan-1-yl)-2-(1-((4-(trifluoromethoxy)benzyl)oxy)-2-naphthamido)acetic Acid]	B (“B” refers to AUC @10 uM between 4-6)	0.1 µM	103%
C[C@@H](OCc1ccccc1)[C@H](NC(=O)c1ccc2ccccc2c1OCc1ccc(Cl)c(Cl)c1)C(=O)O (stereo in doubt) [Example 206]	C (“C” refers to AUC @10 uM <4)	–	4.7%
CCC(C)(C)[C@H](NC(=O)c1ccc2ccccc2c1OCc1ccc(C(F)(F)F)cc1)C(=O)O [Example 78, (S)-3,3-dimethyl-2-(1-((4-(trifluoromethyl)benzyl)oxy)-2-naphthamido)pentanoic Acid]	A (“A” refers to AUC @10 uM >6)	0.4 µM	242%

Results, then the molecule that gave them:

TECC24 AUC fold over DMSO @10 μM [1]	EC50 [2]	Emax [2]	Structure (SMILES)
B (“B” refers to AUC @10 uM between 4-6)	0.4 µM	139%	CCC(C)(C)[C@H](NC(=O)c1ccc2c(F)cccc2c1OCc1ccc(OC(F)(F)F)cc1)C(=O)O [Example 226, (2S)-2-[[5-fluoro-1-[[4-(trifluoromethoxy)phenyl]methoxy]naphthalene-2-carbonyl]amino]-3,3-dimethyl-pentanoic Acid]
A (“A” refers to AUC @10 uM >6)	0.1 µM	249%	CCCC(C)(C)[C@H](NC(=O)c1ccc2ccc(C(F)(F)F)cc2c1OCc1ccc(C(F)(F)F)cc1)C(=O)O [Example 304, (S)-3,3-dimethyl-2-(7-(trifluoromethyl)-1-((4-(trifluoromethyl)benzyl)oxy)-2-naphthamido)hexanoic Acid]
C (“C” refers to AUC @10 uM <4)	1.5 µM	70.2%	CC(C)Oc1ccc2c(OCc3ccc(C(F)(F)F)cc3)c(C(=O)N[C@H](C(=O)O)C(C)(C)C)ccc2c1 [Example 260, (2S)-2-[[6-isopropoxy-1-[[4-(trifluoromethyl)phenyl]methoxy]naphthalene-2-carbonyl]amino]-3,3-dimethyl-butanoic Acid]
A (“A” refers to AUC @10 uM >6)	0.6 µM	110%	CC(C)(C)[C@H](NC(=O)c1ccc2ccc(-c3cscn3)cc2c1OCc1ccc(OC(F)(F)F)cc1)C(=O)O [Example 252, (2S)-3,3-dimethyl-2-[[7-thiazol-4-yl-1-[[4-(trifluoromethoxy)phenyl]methoxy]naphthalene-2-carbonyl]amino]butanoic Acid]
A (“A” refers to AUC @10 uM >6)	0.1 µM	284%	CC(C)(C)[C@H](NC(=O)c1ccc2ccc(C(F)F)cc2c1OCc1ccc(OC(F)(F)F)cc1)C(=O)O [Example 245, (2S)-2-[[7-(difluoromethyl)-1-[[4-(trifluoromethoxy)phenyl]methoxy]naphthalene-2-carbonyl]amino]-3,3-dimethyl-butanoic Acid]
A (“A” refers to AUC @10 uM >6)	0.1 µM	270%	CCC(C)(C)[C@H](NC(=O)c1ccc2ccc(C(F)F)cc2c1OCc1ccc(OC(F)(F)F)cc1)C(=O)O [Example 250, (2S)-2-[[7-(difluoromethyl)-1-[[4-(trifluoromethoxy)phenyl]methoxy]naphthalene-2-carbonyl]amino]-3,3-dimethyl-pentanoic Acid]
B (“B” refers to AUC @10 uM between 4-6)	2.2 µM	127%	CCC(C)(C)[C@@H](NC(=O)c1ccc2ccc(C)cc2c1OCc1ccc(OC(F)(F)F)cc1)C(=O)O [Example 312, (R)-3,3-dimethyl-2-(7-methyl-1-((4-(trifluoromethoxy)benzyl)oxy)-2-naphthamido)pentanoic Acid]
A (“A” refers to AUC @10 uM >6)	0.1 µM	267%	CCCC(C)(CC)[C@H](NC(=O)c1ccc2ccc(Cl)cc2c1OCc1ccc(OC(F)(F)F)cc1)C(=O)O (stereo partly drawn) [Example 251, (2S)-2-[[7-chloro-1-[[4-(trifluoromethoxy)phenyl]methoxy]naphthalene-2-carbonyl]amino]-3-ethyl-3-methyl-hexanoic Acid]
C (“C” refers to AUC @10 uM <4)	0.8 µM	99.1%	CC(C)(C)[C@@H](NC(=O)c1ccc2ccc(Cl)cc2c1OCc1ccc(OC(F)(F)F)cc1)C(=O)O [Example 285, (R)-2-(7-chloro-1-((4-(trifluoromethoxy)benzyl)oxy)-2-naphthamido)-3,3-dimethylbutanoic Acid]
